Measured values published in patent US9944645B2, “Imidazotriazines and imidazopyrimidines as kinase inhibitors” (Incyte Holdings Corporation, priority 2006, dated 2018).

The compounds below were run against c-Met kinase (h-Met; histidine-tagged c-Met catalytic domain fusion protein) (Homo sapiens (Human), UniProt P08581) (assay: In Vitro c-Met Kinase Enzyme Assays). Conditions: phosphorylation of poly Glu-Tyr, 5 μM ATP, 25 minutes at 30° C.
Sequence of c-Met kinase (h-Met; histidine-tagged c-Met catalytic domain fusion protein) (P08581 1078-1345): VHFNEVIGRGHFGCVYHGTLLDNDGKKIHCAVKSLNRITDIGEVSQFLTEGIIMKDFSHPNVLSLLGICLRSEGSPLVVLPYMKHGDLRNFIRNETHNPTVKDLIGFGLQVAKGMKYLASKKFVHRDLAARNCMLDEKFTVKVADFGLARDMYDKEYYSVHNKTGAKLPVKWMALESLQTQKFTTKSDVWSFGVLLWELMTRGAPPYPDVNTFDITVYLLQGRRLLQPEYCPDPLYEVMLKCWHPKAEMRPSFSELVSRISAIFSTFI
Type: biochemical
Procedure, shortened: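 His-tagged c-Met catalytic domain reacted 25 min at 30° C, within the linear initial-rate range. Phosphotyrosine detected by ELISA with peroxidase-labeled anti-phospho-tyrosine antibody and TMB, OD read at 450 nm (540 nm correction); IC50 from curve fit.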
`O=C(NC1CC1)c1ccc(-c2cnc3ncc(C4(c5ccc6ncccc6c5)CC4)n3c2)cc1Cl` [Example 175, 2-Chloro-N-cyclopropyl-4-[3-(1-quinolin-6-ylcyclopropyl)imidazo[1,2-a]pyrimidin-6-yl]benzamide] was tested, and the IC50 was under 500 nM. Work on `O=C(NC1CCOC1)c1ccc(-c2cnc3ncc(C4(c5ccc6ncccc6c5)CC4)n3c2)cc1Cl` (stereo not drawn) [Example 176, 2-Chloro-4-[3-(1-quinolin-6-ylcyclopropyl)imidazo[1,2-a]pyrimidin-6-yl]-N-(tetrahydrofuran-3-yl)benzamide] yielded an IC50 of under 500 nM. For `CC(NC(=O)c1ccc(-c2cnc3ncc(C4(c5ccc6ncccc6c5)CC4)n3c2)cc1Cl)c1ccccn1` (stereo not drawn) [Example 177, 2-Chloro-N-(1-pyridin-2-ylethyl)-4-[3-(1-quinolin-6-ylcyclopropyl)imidazo[1,2-a]pyrimidin-6-yl]benzamide], the IC50 was under 500 nM. `O=C(c1ccc(-c2cnc3ncc(C4(c5ccc6ncccc6c5)CC4)n3c2)cc1Cl)N1CCC1` [Example 178, 6-(1-{6-[4-(Azetidin-1-ylcarbonyl)-3-chlorophenyl]imidazo[1,2-a]pyrimidin-3-yl}cyclopropyl)quinoline] showed an IC50 of under 500 nM. `O=C(NC1CCN(c2ccccn2)C1)c1ccc(-c2cnc3ncc(C4(c5ccc6ncccc6c5)CC4)n3c2)cc1Cl` (stereo not drawn) [Example 179, 2-Chloro-N-(1-pyridin-2-ylpyrrolidin-3-yl)-4-[3-(1-quinolin-6-ylcyclopropyl)imidazo[1,2-a]pyrimidin-6-yl]benzamide] was tested, and the IC50 was under 500 nM. `CC(COc1ccccn1)NC(=O)c1ccc(-c2cnc3ncc(C4(c5ccc6ncccc6c5)CC4)n3c2)cc1Cl` (stereo not drawn) [Example 180, 2-Chloro-N-[1-methyl-2-(pyridin-2-yloxy)ethyl]-4-[3-(1-quinolin-6-ylcyclopropyl)imidazo[1,2-a]pyrimidin-6-yl]benzamide] gave an IC50 of under 500 nM. `CC(C)[C@H](NC(=O)c1ccc(-c2cnc3ncc(C4(c5ccc6ncccc6c5)CC4)n3c2)cc1Cl)C(=O)N(C)C` [Example 181, 2-Chloro-N-(1S)-1-[(dimethylamino)carbonyl]-2-methylpropyl-4-[3-(1-quinolin-6-ylcyclopropyl)imidazo[1,2-a]pyrimidin-6-yl]benzamide] gave an IC50 of under 500 nM. `O=C1c2ccc(-c3cnc4ncc(C5(c6ccc7ncccc7c6)CC5)n4c3)cc2CN1C1CC1` [Example 182, 2-Cyclopropyl-5-[3-(1-quinolin-6-ylcyclopropyl)imidazo[1,2-a]pyrimidin-6-yl]isoindolin-1-one] showed an IC50 of under 500 nM. Work on `CCN1Cc2cc(-c3cnc4ncc(C5(c6ccc7ncccc7c6)CC5)n4c3)ccc2C1=O` [Example 183, 2-Ethyl-5-[3-(1-quinolin-6-ylcyclopropyl)imidazo[1,2-a]pyrimidin-6-yl]isoindolin-1-one] yielded an IC50 of under 500 nM. In the case of `COCC(C)N1Cc2cc(-c3cnc4ncc(C5(c6ccc7ncccc7c6)CC5)n4c3)ccc2C1=O` (stereo not drawn) [Example 184, 2-(2-Methoxy-1-methylethyl)-5-[3-(1-quinolin-6-ylcyclopropyl)imidazo[1,2-a]pyrimidin-6-yl]isoindolin-1-one], the IC50 is reported as under 500 nM. `O=C1c2ccc(-c3cnc4ncc(C5(c6ccc7ncccc7c6)CC5)n4c3)cc2CN1Cc1ccccn1` [Example 185, 2-(Pyridin-2-ylmethyl)-5-[3-(1-quinolin-6-ylcyclopropyl)imidazo[1,2-a]pyrimidin-6-yl]isoindolin-1-one] was tested, and the IC50 was under 500 nM. For `CN1Cc2cc(-c3cnc4ncc(C5(c6ccc7ncccc7c6)CC5)n4c3)ccc2C1=O` [Example 186, 2-Methyl-5-[3-(1-quinolin-6-ylcyclopropyl)imidazo[1,2-a]pyrimidin-6-yl]isoindolin-1-one], the IC50 was under 500 nM. `CCNC(=O)C1(c2ccc(-c3cnc4ncc(C5(c6ccc7ncccc7c6)CC5)n4c3)cc2)CC1` [Example 187, N-Ethyl-1-{4-[3-(1-quinolin-6-ylcyclopropyl)imidazo[1,2-a]pyrimidin-6-yl]phenyl}cyclopropanecarboxamide] gave an IC50 of under 500 nM. Work on `CC(NC(=O)C1(c2ccc(-c3cnc4ncc(C5(c6ccc7ncccc7c6)CC5)n4c3)cc2)CC1)c1ccccn1` (stereo not drawn) [Example 188, N-(1-Pyridin-2-ylethyl)-1-{4-[3-(1-quinolin-6-ylcyclopropyl)imidazo[1,2-a]pyrimidin-6-yl]phenyl}cyclopropanecarboxamide] yielded an IC50 of under 500 nM. `CC(COc1ccccn1)NC(=O)C1(c2ccc(-c3cnc4ncc(C5(c6ccc7ncccc7c6)CC5)n4c3)cc2)CC1` (stereo not drawn) [Example 189, N-[1-Methyl-2-(pyridin-2-yloxy)ethyl]-1-{4-[3-(1-quinolin-6-ylcyclopropyl)imidazo[1,2-a]pyrimidin-6-yl]phenyl}cyclopropanecarboxamide] gave an IC50 of under 500 nM. Compound `CNC(=O)C(O)c1ccc(-c2cnc3ncc(C4(c5ccc6ncccc6c5)CC4)n3c2)cc1F` (stereo not drawn) [Example 190, 2-{2-Fluoro-4-[3-(1-quinolin-6-ylcyclopropyl)imidazo[1,2-a]pyrimidin-6-yl]phenyl}-2-hydroxy-N-methylacetamide] has an IC50 of under 500 nM. With `CN(C)C(=O)C(O)c1ccc(-c2cnc3ncc(C4(c5ccc6ncccc6c5)CC4)n3c2)cc1F` (stereo not drawn) [Example 191, 2-{2-fluoro-4-[3-(1-quinolin-6-ylcyclopropyl)imidazo[1,2-a]pyrimidin-6-yl]phenyl}-2-hydroxy-N,N-dimethylacetamide] the IC50 was under 500 nM. `CCNC(=O)Nc1cccc(Cc2cnc3ncc(-c4ccc(Br)c(F)c4)nn23)c1` [Example 192, N-(3-[2-(4-Bromo-3-fluorophenyl)imidazo[1,2-b][1,2,4]triazin-7-yl]methylphenyl)-N′-ethylurea] showed an IC50 of under 500 nM. In the case of `Nc1nc2ncc(C3(c4ccc5ncccc5c4)CC3)n2nc1-c1cccc(Cl)c1Cl` [Example 193, 2-(2,3-Dichlorophenyl)-7-(1-quinolin-6-ylcyclopropyl)imidazo[1,2-b][1,2,4]triazin-3-amine], the IC50 is reported as under 500 nM. In the case of `CNC(=O)c1ccc(-c2cnc3ncc(C4(c5ccc6ncccc6c5)CC4)n3c2)c(F)c1F` [Example 194, 2,3-Difluoro-N-methyl-4-[3-(1-quinolin-6-ylcyclopropyl)imidazo[1,2-a]pyrimidin-6-yl]benzamide], the IC50 is reported as under 500 nM. For `CNC(=O)c1c(F)cc(-c2cnc3ncc(C4(c5ccc6ncccc6c5)CC4)n3c2)cc1F` [Example 195, 6-Difluoro-N-methyl-4-[3-(1-quinolin-6-ylcyclopropyl)imidazo[1,2-a]pyrimidin-6-yl]benzamide], the IC50 was under 500 nM. `CNS(=O)(=O)c1ccc(-c2cnc3ncc(C4(c5ccc6ncccc6c5)CC4)n3c2)cc1F` [Example 196, 2-Fluoro-N-methyl-4-[3-(1-quinolin-6-ylcyclopropyl)imidazo[1,2-a]pyrimidin-6-yl]benzenesulfonamide] showed an IC50 of under 500 nM. For `CN(C)C(=O)Cn1ccc(-c2cnc3ncc(C4(c5ccc6ncccc6c5)CC4)n3c2)n1` [Example 197, N,N-Dimethyl-2-{3-[3-(1-quinolin-6-ylcyclopropyl)imidazo[1,2-a]pyrimidin-6-yl]-1H-pyrazol-1-yl}acetamide], the IC50 was under 500 nM. `CC(C)(C)[C@H](NC(=O)c1ccc(-c2cnc3ncc(C4(c5ccc6ncccc6c5)CC4)n3c2)cc1F)C(=O)N1CCC1` [Example 198, N-[(1S)-1-(Azetidin-1-ylcarbonyl)-2,2-dimethylpropyl]-2-fluoro-4-[3-(1-quinolin-6-ylcyclopropyl)imidazo[1,2-a]pyrimidin-6-yl]benzamide] was tested, and the IC50 was under 500 nM.
